These results are taken from PMC7955127, “Preclinical small molecule WEHI-7326 overcomes drug resistance and elicits response in patient-derived xenograft models of human treatment-refractory tumors” (Cell Death & Disease, 2021).

In one series the test system is LoVo. The experiment in a line: Cell growth inhibition assay, LoVo. As to conditions: Homo sapiens, colon carcinoma, 72 h viability assay, CellTiterGlo, mean of 3 ± SEM, read-out: IC50 (inhibition of cellular proliferation). It is filed as cell-based. How it is done: (§1) Cells were plated at a density of between 500 to 5000 cells per well for adherent cell lines depending on doubling time, and 15,000 cells per well for lymphoblastic leukemia cell lines, in a 96-well plate in 200 μl of growth media. Plates were incubated overnight at 37 °C before adding the inhibitors. Inhibitors were serially diluted from the stock solutions in complete medium and added to the cells. […] Cell viability was assessed by the AlamarBlue (Invitrogen) or CellTiterBlue/Glo (Promega) method according to manufacturer’s instructions. The curve fits and IC50 values were generated in PRISM (GraphPad, San Diego, CA).

The test system of a further series is H1437. The experiment in a line: Cell growth inhibition assay, H1437. As to conditions: Homo sapiens, NCI-H1437; H1437, non-small cell lung carcinoma; 72 h viability assay, CellTiterGlo; mean of 3 ± SEM; read-out: IC50 (inhibition of cellular proliferation). It is filed as cell-based. How it is done: as §1
The next series relates to CEM dEpoB300. Put plainly: Cell growth inhibition assay, CEM dEpoB300. Format: cell-based. As to conditions: Homo sapiens; CEM dEpoB300, leukemia (taxane resistant, β-tubulin mutation); 72 h, Alamar Blue; mean of 3 ± SEM; read-out: IC50 (inhibition of cellular proliferation). How it is done:
Cells were plated at a density of between 500 to 5000 cells per well for adherent cell lines depending on doubling time, and 15,000 cells per well for lymphoblastic leukemia cell lines, in a 96-well plate in 200 μl of growth media. Plates were incubated overnight at 37 °C before adding the inhibitors. Inhibitors were serially diluted from the stock solutions in complete medium and added to the cells. Incubation in the presence of inhibitors was continued for […]. Cell viability was assessed by the AlamarBlue (Invitrogen) or CellTiterBlue/Glo (Promega) method according to manufacturer’s instructions. The curve fits and IC50 values were generated in PRISM (GraphPad, San Diego, CA).
Parental human lymphoblastic leukemia cells (CEM) and their drug resistant derivatives (dEpoB30 and dEpoB300) were cultured in the presence of increasing amounts of WEHI-7326, paclitaxel or epothilone B. Cell survival was determined as described in Experimental Procedures. Shown are mean of 3 experiments +/- SEM. Dose response curves were fitted in PRISM using non-linear regression (4 parameter logistic) to calculate IC50 values.

The next series deals with porcine tubulin. The experiment in a line: Tubulin in vitro polymerization assay (fluorescence-based, BK011P). Format: biochemical. To be noted: purified tubulin. How it is done: A commercial fluorescence-based tubulin polymerization assay (Cytoskeleton, Denver, CO; Cat. # BK011P) was used as per manufacturer’s instructions for detection of tubulin polymerization inhibitors. Briefly, porcine tubulin (3 mg/ml tubulin in 80 mM PIPES pH 7.0, 0.5 mM EGTA, 2 mM MgCl2, 1 mM GTP and 10% glycerol) was incubated at 37 °C with either vehicle control (DMSO), with Paclitaxel or antimitotic compound. Each condition was tested in duplicate. Polymerization was measured over time by excitation at 360 nm and emission at 420 nm in a temperature controlled 96-well plate fluorimeter (Envision 2105, Perkin-Elmer, Waltham, MS) equipped with filters for excitation at 340–360 nm and emission at 420–450 nm.

Another series has as its system tubulin in SW480 cells. Put plainly: Tubulin polymerization in cells (polymerized vs soluble, western blot). Format: cell-based, human. To be noted: 100 nM, overnight, vs control cells. How it is done:
Cells incubated with control or with inhibitors were lysed in hypotonic buffer (1 mM MgCl2/2 mM EGTA/0.5% Nonidet P-40/20 mM Tris·HCl, pH 6.8 with the addition of complete protease inhibitor cocktail). The lysates were centrifuged at 14,000 rpm for 10 min at RT. Supernatants (containing soluble tubulin) and pellets (containing polymerized tubulin) were separated and each sample was brought to an equal volume with hypotonic buffer. Proteins were resolved by SDS/PAGE on 4–12% gels (Invitrogen, Carlsbad, CA), transferred to nitrocellulose and immunoblotted with an antibody against tubulin followed by fluorescent secondary antibody. Immunoreactive bands were detected using an Odyssey photometer (Li-Cor, Lincoln, NB).

The subject of a further series is 134111 HGSOC PDX. Put plainly: HGSOC post-chemo PDX model 134111. It is filed as in vivo, NSG mice. As to conditions: 134111 post-taxane, cisplatin-refractory PDX; 20 mg/kg i.v. twice a week, 6 weeks. How it is done:
(§2) Two to three mm ovarian tumor fragments were subcutaneously engrafted in the left flank of NSG mice and monitored by physical palpation for tumor growth and engraftment. Engrafted tumors were measured twice a week using digital Vernier calipers and maximum tumor diameter + perpendicular tumor length were digitally recorded into the Study Director software (v 3.0/4.0 StudyLog). Tumor volume was calculated automatically (tumor volume (mm^3) = 0.5236 x [larger diameter (mm) x smaller diameter (mm)^2]). Mice were randomized to treatment once their tumor volume reach 180–300 mm^3 and tumor measurements were performed twice a week up to 120 days or when the tumor volume reaches 700 mm^3.
(§3) Time to progressive disease (PD): Defined as the time (in days) from beginning of treatment to an increase in average tumor volume of >20% from the nadir (taken as the smallest average tumor volume recorded since treatment started or 200 mm^3 if nadir was <200 mm^3 as lesions smaller than this are difficult to measure with accuracy). Median time to harvest (TTH): Defined as the time (in days) from the beginning of treatment to day of harvest at 700 mm^3 and the median TTH was calculated and plotted using Kaplan-Meier curves. Based on ref. [27]. […]

Another series relates to 134169 HGSOC PDX. Put plainly: HGSOC post-chemo PDX model 134169. Format: in vivo, NSG mice. To be noted: 134169 post-taxane, cisplatin-refractory PDX; 20 mg/kg i.v. twice a week, 6 weeks. How it is done: as §2, §3
The nature of series [1]: Metabolic stability in liver microsomes and cryopreserved hepatocytes. To be noted: human, rat and mouse liver microsomes and cryopreserved hepatocytes. It is filed as in vitro ADME. The text has this: a Measured physicochemical and solubility data for WEHI-7326. […] Microsomal-predicted EH values are included.

The structures appear in SMILES notation.

Regarding `COc1ccc(CNc2nc(NCc3ccc(CN)cc3)nc(NN3CC(=O)NC3=O)n2)cc1` [WEHI-7326], the results for the IC50 with LoVo, with H1437 and with CEM dEpoB300 were 42.2 ± 9.9 nM, 29.7 ± 10.8 nM and 6.51 ± 0.08 nM, respectively. Also, the “Effect on in vitro tubulin polymerization” value in the series on porcine tubulin (50 μM) was “markedly slowed tubulin polymerization”. Further, the “Effect on in vitro tubulin polymerization rates” value with porcine tubulin (concentrations up to 15 μM, vs vehicle) is given as “did not affect”. Besides, the “Change in ratio of polymerized to soluble tubulin” value in the series on tubulin in SW480 cells was “no significant change”. Further, the Tumor response entry in the series on 134111 HGSOC PDX and with 134169 HGSOC PDX was “ineffective” in each case. Further, the Rate of metabolism result in series [1] is “low rates of metabolism”.
